According to patent US12344610B2, “APOL1 inhibitors and methods of use” (Maze Therapeutics, Inc., priority 2022, dated 2025):

Experiments:
[1] = tested on: Trypanosoma brucei Lister 427 VSG221 with APOL1 G0 recombinant protein; experiment: APOL1 G0 trypanosome cell rescue assay (Example B5); format: cell-based; details: Trypanosoma brucei, 20 h, read-out: APOL1 G0 Trypanosome Rescue EC50, Trypanosoma brucei Lister 427 VSG221 with APOL1 G0 recombinant protein, 20 hours, CellTiter-Glo; geometric mean of at least 2 assay runs; † = single assay run
Method in brief: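 Recombinant APOL1 protein, dispensed from a 2 μg/mL stock, and 250 T. brucei per well were co-incubated with test compound (0.4% DMSO) for 20 h. Viability: CellTiter-Glo luminescence.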

[2] = tested on: HEK293 clonal cell line overexpressing APOL1 G1; experiment: APOL1 G1 HEK293 cell rescue assay (Example B3); format: cell-based; details: Homo sapiens, HEK293, HEK293 clonal line overexpressing APOL1 G1; geometric mean of at least 2 runs; † = single run; ¥ = concentration at 50% rescue estimated (no sigmoidal curve)
Method in brief: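 Rescue of cell death caused by APOL1 G1 overexpression was measured in a clonal HEK293 line. Compounds were tested in duplicate on one plate, and EC50s were geometric means across at least two runs on different days. Some values are estimated 50%-rescue concentrations where curve fitting failed.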

SMILES	EC50 [1]	EC50 [2]
C[C@]1(O)C[C@@H](n2c(=O)cnc3cc(OCCN4CCC5(CC4)C(=O)Nc4ccc(Cl)cc45)cnc32)C1 [Compound 358, 5-chloro-1′-[2-({3-oxo-4-[(cis)-3-hydroxy-3-methylcyclobutyl]-3H,4H-pyrido[2,3-b]pyrazin-7-yl}oxy)ethyl]-1,2-dihydrospiro[indole-3,4′-piperidin]-2-one]	62.1 nM	111 nM
CC1(O)CN(c2ncc(OCCN3CCC4(CC3)C(=O)Nc3ccc(C(F)F)cc34)cn2)C1 [Compound 395, 5-(difluoromethyl)-1′-(2-{[2-(3-hydroxy-3-methylazetidin-1-yl)pyrimidin-5-yl]oxy}ethyl)-1,2-dihydrospiro[indole-3,4′-piperidin]-2-one]	240 nM	157 nM
